Measured values: patent US12509445B2, “Herbicidally active 4-cyclopropyl-6-[4-(trifluormethyl)pyrazol-1-yl)]pyrimidines” (Bayer Aktiengesellschaft, priority 2019, dated 2025)

Tests used:
Format in all cases: in vivo
[1] = tested on: Alopecurus myosuroides (ALOMY); test: Post-emergence herbicidal action; details: for Herbicidal action against ALOMY: 80 g of a.i./ha, comparative test; for Post-emergence action ALOMY: 320 g/ha, visual rating after about 3 weeks vs untreated controls, 100% = plants have died
Protocol: (§1) Seeds of monocotyledonous and dicotyledonous weeds and crop plants are placed in sandy loam in plastic or organic plant pots, covered with soil and cultivated in a greenhouse under controlled growth conditions. 2 to 3 weeks after sowing, the test plants are treated at the one-leaf stage. The compounds of the invention, formulated in the form of wettable powders (WP) or as emulsion concentrates (EC), are then sprayed onto the green parts of the plants as aqueous suspension or emulsion with addition of 0.5% additive at a water application rate of 600 l/ha (converted). After the test plants have been kept in the greenhouse under optimum growth conditions for about 3 weeks, the activity of the preparations is rated visually in comparison to untreated controls. For example, 100% activity=the plants have died, 0% activity=like control plants.
(§2) The abbreviations used here have the following meanings: • ABUTH Abutilon theophrasti • AMARE Amaranlhus retroflexus • CYPES Cyperus serotinus • ECHCGEchinocloa crus galli • LOLRI Lolium rigidum Gaudin • PHBPU Pharbitis purpurcum • SETVI Setaria viridis • VERPE Veronica persica • ALOMY Alopccurus myosuroides • AVEFA Avena fatua • DIGSA Digitaria sanguinalis • LOLMU Lolium multiflorum • MATIN Matricaria inodora • POLCO Polygonum convolvulus • STEME Stellaria media • VIOTR Viola tricolor
(§3) The compounds according to the invention were tested by the post-emergence and pre-emergence methods under the conditions described above for comparative purposes with the structurally closest compounds known from WO 2005/089551 A1 (D1).

[2] = tested on: Echinochloa crus-galli (ECHCG); test: Post-emergence herbicidal action; details: for Herbicidal action against ECHCG: 80 g of a.i./ha, comparative test; for Post-emergence action ECHCG: 320 g/ha, visual rating after about 3 weeks vs untreated controls, 100% = plants have died
Protocol: as §1, §2, §3

[3] = tested on: Matricaria inodora (MATIN); test: Post-emergence herbicidal action; details: for Herbicidal action against MATIN: 80 g of a.i./ha, comparative test
Protocol: as §1, §2, §3

Setaria viridis (SETVI) [4] = test: Post-emergence herbicidal action; details: for Herbicidal action against SETVI: 80 g of a.i./ha, comparative test; for Post-emergence action SETVI: 320 g/ha, visual rating after about 3 weeks vs untreated controls, 100% = plants have died
Protocol: as §1, §2, §3

[5] = tested on: Amaranthus retroflexus (AMARE); test: Post-emergence herbicidal action; details: 320 g/ha, visual rating after about 3 weeks vs untreated controls, 100% = plants have died
Protocol: as §1, §2

[6] = tested on: Lolium rigidum Gaudin (LOLRI); test: Post-emergence herbicidal action; details: 320 g/ha, visual rating after about 3 weeks vs untreated controls, 100% = plants have died
Protocol: as §1, §2

[7] = tested on: Pharbitis purpurea (PHBPU); test: Post-emergence herbicidal action; details: 320 g/ha, visual rating after about 3 weeks vs untreated controls, 100% = plants have died
Protocol: as §1, §2

Veronica persica (VERPE) [8] = test: Post-emergence herbicidal action; details: 320 g/ha, visual rating after about 3 weeks vs untreated controls, 100% = plants have died
Protocol: as §1, §2

Viola tricolor (VIOTR) [9] = test: Post-emergence herbicidal action; details: 320 g/ha, visual rating after about 3 weeks vs untreated controls, 100% = plants have died
Protocol: as §1, §2

[10] = tested on: Alopecurus myosuroides (ALOMY); test: Pre-emergence herbicidal action; details: for Herbicidal action against ALOMY: 80 g of a.i./ha, comparative test; for Pre-emergence action ALOMY: 320 g/ha, visual scoring after about 3 weeks vs untreated controls, 100% = plants have died
Source text: as §2
(§4) Seeds of monocotyledonous and dicotyledonous weed plants and crop plants are placed in plastic or organic plant pots and covered with soil. The compounds of the invention, formulated in the form of wettable powders (WP) or as emulsion concentrates (EC), are then applied onto the surface of the covering soil as aqueous suspension or emulsion with addition of 0.5% additive at a water application rate of 600 l/ha (converted). After the treatment, the pots are placed in a greenhouse and kept under good growth conditions for the trial plants. After about 3 weeks, the effect of the preparations is scored visually in comparison with untreated controls as percentages. For example, 100% activity=the plants have died, 0% activity=like control plants.
as §3

[11] = tested on: Echinochloa crus-galli (ECHCG); test: Pre-emergence herbicidal action; details: for Herbicidal action against ECHCG: 80 g of a.i./ha, comparative test; for Pre-emergence action ECHCG: 320 g/ha, visual scoring after about 3 weeks vs untreated controls, 100% = plants have died
Source text: as §2, §4, §3

[12] = tested on: Matricaria inodora (MATIN); test: Pre-emergence herbicidal action; details: for Herbicidal action against MATIN: 80 g of a.i./ha, comparative test; for Pre-emergence action MATIN: 320 g/ha, visual scoring after about 3 weeks vs untreated controls, 100% = plants have died
Source text: as §2, §4, §3

[13] = tested on: Polygonum convolvulus (POLCO); test: Pre-emergence herbicidal action; details: for Herbicidal action against POLCO: 80 g of a.i./ha, comparative test; for Pre-emergence action POLCO: 320 g/ha, visual scoring after about 3 weeks vs untreated controls, 100% = plants have died
Source text: as §2, §4, §3

Setaria viridis (SETVI) [14] = test: Pre-emergence herbicidal action; details: for Herbicidal action against SETVI: 80 g of a.i./ha, comparative test; for Pre-emergence action SETVI: 320 g/ha, visual scoring after about 3 weeks vs untreated controls, 100% = plants have died
Source text: as §2, §4, §3

Stellaria media (STEME) [15] = test: Pre-emergence herbicidal action; details: for Herbicidal action against STEME: 80 g of a.i./ha, comparative test; for Pre-emergence action STEME: 320 g/ha, visual scoring after about 3 weeks vs untreated controls, 100% = plants have died
Source text: as §2, §4, §3

Viola tricolor (VIOTR) [16] = test: Pre-emergence herbicidal action; details: for Herbicidal action against VIOTR: 80 g of a.i./ha, comparative test; for Pre-emergence action VIOTR: 320 g/ha, visual scoring after about 3 weeks vs untreated controls, 100% = plants have died
Source text: as §2, §4, §3

[17] = tested on: Amaranthus retroflexus (AMARE); test: Pre-emergence herbicidal action; details: 320 g/ha, visual scoring after about 3 weeks vs untreated controls, 100% = plants have died
Source text: as §2, §4

Avena fatua (AVEFA) [18] = test: Pre-emergence herbicidal action; details: 320 g/ha, visual scoring after about 3 weeks vs untreated controls, 100% = plants have died
Source text: as §2, §4

[19] = tested on: Digitaria sanguinalis (DIGSA); test: Pre-emergence herbicidal action; details: 320 g/ha, visual scoring after about 3 weeks vs untreated controls, 100% = plants have died
Source text: as §2, §4

[20] = tested on: Lolium rigidum Gaudin (LOLRI); test: Pre-emergence herbicidal action; details: 320 g/ha, visual scoring after about 3 weeks vs untreated controls, 100% = plants have died
Source text: as §2, §4

[21] = tested on: Pharbitis purpurea (PHBPU); test: Pre-emergence herbicidal action; details: 320 g/ha, visual scoring after about 3 weeks vs untreated controls, 100% = plants have died
Source text: as §2, §4

Veronica persica (VERPE) [22] = test: Pre-emergence herbicidal action; details: 320 g/ha, visual scoring after about 3 weeks vs untreated controls, 100% = plants have died
Source text: as §2, §4

[23] = tested on: harmful plants such as Alopecurus myosuroides, Amaranthus retroflexus, Avena fatua, Echinochloa crus-galli, Matricaria inodora, Pharbitis purpurea, Polygonum …; test: Pre-emergence herbicidal action, summary in text; details: pre-emergence treatment
Source text: as §4
At the same time, some compounds according to the invention leave graminaceous crops such as barley, wheat, rye, millet/sorghum, maize, rice or sugarcane virtually undamaged when applied by the pre-emergence method, even at high active compound dosages. Some compounds are additionally also benign to dicotyledonous crops such as soya, cotton, oilseed rape or sugarbeet.

[24] = tested on: Abutilon theophrasti (ABUTH); test: Post-emergence herbicidal action
Protocol: as §1, §2, §3

Avena fatua (AVEFA) [25] = test: Post-emergence herbicidal action
Protocol: as §1, §2, §3

[26] = tested on: Lolium multiflorum (LOLMU); test: Post-emergence herbicidal action
Protocol: as §1, §2, §3

[27] = tested on: Polygonum convolvulus (POLCO); test: Post-emergence herbicidal action
Protocol: as §1, §2, §3

Stellaria media (STEME) [28] = test: Post-emergence herbicidal action
Protocol: as §1, §2, §3

[29] = tested on: Abutilon theophrasti (ABUTH); test: Pre-emergence herbicidal action; details: 320 g/ha, visual scoring after about 3 weeks vs untreated controls, 100% = plants have died
Source text: as §2, §4

[30] = tested on: Lolium multiflorum (LOLMU); test: Pre-emergence herbicidal action; details: 320 g/ha, visual scoring after about 3 weeks vs untreated controls, 100% = plants have died
Source text: as §2, §4

[31] = tested on: harmful plants such as Abutilon theophrasti, Alopecurus myosuroides, Amaranthus retroflexus, Avena fatua, Echinochloa crus-galli, Matricaria inodora, Pharbitis …; test: Post-emergence herbicidal action, summary in text; details: post-emergence treatment
Protocol: as §1
In this case, for example, in the post-emergence process, the compounds No. 1-001 and 111-001 have very good herbicidal activity (80% to 100% herbicidal action) against harmful plants such as Abutilon theophrasti, Alopecurus myosuroides, Amaranthus retroflexus, Avena fatua, Echinochloa crus-galli, Matricaria inodora, Pharbitis purpurea, Setaria viridis, Stellaria media, Veronica persica and Viola tricolor at an application rate of 0.32 kg of active substance or less per hectare. At the same time, some compounds according to the invention leave graminaceous crops such as barley, wheat, rye, millet/sorghum, maize, rice or sugarcane virtually undamaged when applied by the post-emergence method, even at high active compound dosages. Some substances are additionally also benign to dicotyledonous crops such as soya, cotton, oilseed rape or sugarbeet.

[32] = 80 g of a.i./ha, comparative test
[33] = 320 g/ha, visual rating after about 3 weeks vs untreated controls, 100% = plants have died

FC(F)Oc1cc(Oc2nc(C3CC3)cc(-n3cc(C(F)(F)F)cn3)n2)ccn1 [Example I-003]
100%: Pre-emergence action ALOMY [10] | Herbicidal action against SETVI (Setaria viridis (SETVI) [14]) | Pre-emergence action SETVI (Setaria viridis (SETVI) [14]) | Pre-emergence action STEME (Stellaria media (STEME) [15]) | Herbicidal action against VIOTR (Viola tricolor (VIOTR) [16]) | Pre-emergence action VIOTR (Viola tricolor (VIOTR) [16]) | Pre-emergence action AMARE [17] | Pre-emergence action DIGSA [19] | Pre-emergence action LOLRI [20] | Pre-emergence action PHBPU [21] | Pre-emergence action VERPE (Veronica persica (VERPE) [22])
60%: Herbicidal action against ALOMY [1] | Herbicidal action against MATIN [3] | Herbicidal action against SETVI (Setaria viridis (SETVI) [4]) | Herbicidal action against ALOMY [10]
good herbicidal action: herbicidal action against harmful plants (in words) [23]
90%: Post-emergence action ALOMY [1] | Post-emergence action ECHCG [2] | Post-emergence action AMARE [5] | Post-emergence action LOLRI [6] | Post-emergence action VERPE (Veronica persica (VERPE) [8]) | Post-emergence action VIOTR (Viola tricolor (VIOTR) [9]) | Pre-emergence action ECHCG [11] | Herbicidal action against MATIN [12] | Pre-emergence action MATIN [12] | Pre-emergence action POLCO [13] | Herbicidal action against STEME (Stellaria media (STEME) [15]) | Pre-emergence action AVEFA (Avena fatua (AVEFA) [18])
80%: Herbicidal action against ECHCG [2] | Post-emergence action SETVI (Setaria viridis (SETVI) [4]) | Post-emergence action PHBPU [7]
20%: Herbicidal action against POLCO [13]
30%: Herbicidal action against ECHCG [11]

Cn1nc(C(F)(F)F)cc1Oc1nc(C2CC2)cc(-n2cc(C(F)(F)F)cn2)n1 [III-001]
100%: Post-emergence action SETVI (Setaria viridis (SETVI) [4]) | Post-emergence action STEME (Stellaria media (STEME) [28]; [33]) | Post-emergence action AMARE [5] | Post-emergence action PHBPU [7] | Post-emergence action VERPE (Veronica persica (VERPE) [8]) | Post-emergence action VIOTR (Viola tricolor (VIOTR) [9]) | Herbicidal action against ALOMY [10] | Pre-emergence action ALOMY [10] | Herbicidal action against ECHCG [11] | Pre-emergence action ECHCG [11] | Herbicidal action against MATIN [12] | Pre-emergence action MATIN [12] | Herbicidal action against SETVI (Setaria viridis (SETVI) [14]) | Pre-emergence action SETVI (Setaria viridis (SETVI) [14]) | Pre-emergence action STEME (Stellaria media (STEME) [15]) | Herbicidal action against VIOTR (Viola tricolor (VIOTR) [16]) | Pre-emergence action VIOTR (Viola tricolor (VIOTR) [16]) | Pre-emergence action PHBPU [21] | Pre-emergence action VERPE (Veronica persica (VERPE) [22])
90%: Herbicidal action against ABUTH [24, 32] | Post-emergence action ABUTH [24, 33] | Post-emergence action ALOMY [1] | Post-emergence action AVEFA (Avena fatua (AVEFA) [25]; [33]) | Post-emergence action ECHCG [2] | Post-emergence action LOLMU [26, 33] | Post-emergence action MATIN [3, 33] | Herbicidal action against POLCO [27, 32] | Post-emergence action POLCO [27, 33] | Herbicidal action against SETVI (Setaria viridis (SETVI) [4]) | Herbicidal action against STEME (Stellaria media (STEME) [28]; [32]) | Herbicidal action against POLCO [13] | Pre-emergence action POLCO [13] | Herbicidal action against STEME (Stellaria media (STEME) [15]) | Pre-emergence action ABUTH [29] | Pre-emergence action AMARE [17] | Pre-emergence action AVEFA (Avena fatua (AVEFA) [18]) | Pre-emergence action LOLMU [30]
70%: Herbicidal action against ALOMY [1] | Herbicidal action against LOLMU [26, 32]
80%: Herbicidal action against AVEFA (Avena fatua (AVEFA) [25]; [32]) | Herbicidal action against ECHCG [2] | Herbicidal action against MATIN [3]
good herbicidal action: herbicidal action against harmful plants (in words) [31] | herbicidal action against harmful plants (in words) [23]
